The source made the active and inactive calls.
Legend:
[1] = viability loss in HeLa cells – cytotoxicity control for MgcRacGAP inhibitor project, dose response (AID 624300); assay type: functional
[2] = target: T1, Rac GTPase-activating protein 1 (Homo sapiens, UniProt Q9H0H5); assay: blockers of MgcRacGAP-driven Rac1 GTP hydrolysis – biochemical, ADP Hunter fluorescence, primary and confirmatory, confirmation (AID 624330); assay type: functional
T1 sequence (Q9H0H5 whole entry): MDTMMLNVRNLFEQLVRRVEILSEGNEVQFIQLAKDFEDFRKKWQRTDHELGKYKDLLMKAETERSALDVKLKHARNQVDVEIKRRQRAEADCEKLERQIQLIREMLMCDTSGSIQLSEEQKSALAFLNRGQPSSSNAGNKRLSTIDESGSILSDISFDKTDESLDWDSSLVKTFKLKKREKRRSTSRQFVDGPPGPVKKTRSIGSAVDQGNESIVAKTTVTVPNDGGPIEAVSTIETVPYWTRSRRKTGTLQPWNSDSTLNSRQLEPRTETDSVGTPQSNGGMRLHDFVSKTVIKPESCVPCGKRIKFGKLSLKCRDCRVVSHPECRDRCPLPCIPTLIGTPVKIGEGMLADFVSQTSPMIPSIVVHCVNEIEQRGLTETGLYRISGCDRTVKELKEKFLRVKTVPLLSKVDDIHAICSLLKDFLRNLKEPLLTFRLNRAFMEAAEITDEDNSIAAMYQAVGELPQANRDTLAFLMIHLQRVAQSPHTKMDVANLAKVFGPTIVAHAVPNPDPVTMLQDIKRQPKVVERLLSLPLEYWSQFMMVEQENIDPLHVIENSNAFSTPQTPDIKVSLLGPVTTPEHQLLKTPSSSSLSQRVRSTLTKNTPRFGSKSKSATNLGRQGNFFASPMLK

[3] = target: T2, Adenosylmethionine-8-amino-7-oxononanoate aminotransferase (Mycobacterium tuberculosis, UniProt P9WQ81); assay: Mycobacterium tuberculosis BioA enzyme inhibitor Measured in Biochemical System Using Plate Reader - 2163-02_Inhibitor_Dose_CherryPick_Activity.; assay type: functional, Mycobacterium tuberculosis UT205
T2 sequence (P9WQ81 whole entry): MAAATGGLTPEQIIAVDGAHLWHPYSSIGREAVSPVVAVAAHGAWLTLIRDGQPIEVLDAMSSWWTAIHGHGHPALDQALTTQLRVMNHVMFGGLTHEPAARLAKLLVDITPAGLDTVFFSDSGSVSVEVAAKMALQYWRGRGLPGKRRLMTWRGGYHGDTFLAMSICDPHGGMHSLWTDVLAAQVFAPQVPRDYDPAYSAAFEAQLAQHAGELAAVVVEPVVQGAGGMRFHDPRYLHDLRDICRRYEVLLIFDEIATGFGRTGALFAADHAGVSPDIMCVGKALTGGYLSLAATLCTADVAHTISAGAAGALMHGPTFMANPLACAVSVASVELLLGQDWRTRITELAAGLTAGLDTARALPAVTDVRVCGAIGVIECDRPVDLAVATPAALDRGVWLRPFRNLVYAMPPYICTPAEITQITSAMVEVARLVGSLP

[4] = target: T3, Low molecular weight phosphotyrosine protein phosphatase (Homo sapiens, UniProt P24666); assay type: functional; details: read-out: IC50_Mean;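 note: Dose-response confirmation assay measuring inhibition of LMPTP enzyme activity by fluorescence intensity read-out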
T3 sequence (P24666 whole entry): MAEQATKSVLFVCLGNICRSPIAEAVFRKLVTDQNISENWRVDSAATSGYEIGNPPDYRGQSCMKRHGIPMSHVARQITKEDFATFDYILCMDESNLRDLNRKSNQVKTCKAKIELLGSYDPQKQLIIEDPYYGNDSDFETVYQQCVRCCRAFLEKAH

[5] = target: T4, Carboxy-terminal domain RNA polymerase II polypeptide A small phosphatase 1 (Homo sapiens, UniProt Q9GZU7); assay: CTDSP1 inhibitors, concentration-response, biochemical, absorbance readout, ultra-high-throughput screen actives (AID 540297); assay type: functional
T4 sequence (Q9GZU7 whole entry): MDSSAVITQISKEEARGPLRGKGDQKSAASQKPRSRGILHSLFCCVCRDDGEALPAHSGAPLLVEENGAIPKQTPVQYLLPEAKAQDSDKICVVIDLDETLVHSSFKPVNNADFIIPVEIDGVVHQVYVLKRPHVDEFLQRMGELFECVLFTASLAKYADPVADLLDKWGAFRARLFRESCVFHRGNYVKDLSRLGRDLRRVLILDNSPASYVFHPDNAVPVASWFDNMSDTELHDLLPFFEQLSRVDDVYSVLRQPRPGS

[6] = target: T5, Microphthalmia-associated transcription factor (Homo sapiens, UniProt O75030); assay: reducers of TRPM1 reporter luminescence, concentration series – cell-based, SK-MEL-5, cherry-picked, set 3, MITF inhibitor project, dose response (AID 493073); assay type: functional;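 note: SK-MEL-5 melanoma cells with luciferase driven by the MITF target TRPM1 promoter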
T5 sequence (O75030 whole entry): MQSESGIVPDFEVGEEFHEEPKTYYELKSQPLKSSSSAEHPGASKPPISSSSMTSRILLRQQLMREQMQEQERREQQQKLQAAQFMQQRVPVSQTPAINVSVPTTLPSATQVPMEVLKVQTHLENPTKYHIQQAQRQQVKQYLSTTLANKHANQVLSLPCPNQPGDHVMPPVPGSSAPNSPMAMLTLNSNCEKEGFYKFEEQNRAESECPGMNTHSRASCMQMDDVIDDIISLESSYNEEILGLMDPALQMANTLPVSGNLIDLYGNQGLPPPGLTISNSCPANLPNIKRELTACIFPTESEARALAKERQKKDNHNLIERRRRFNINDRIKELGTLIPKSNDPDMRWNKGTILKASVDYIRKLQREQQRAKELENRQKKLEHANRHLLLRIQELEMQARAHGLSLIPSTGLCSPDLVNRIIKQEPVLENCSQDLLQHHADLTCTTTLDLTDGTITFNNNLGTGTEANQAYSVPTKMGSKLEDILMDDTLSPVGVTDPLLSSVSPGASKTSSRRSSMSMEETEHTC

[7] = Fluorescence-based cell-based high throughput dose response assay for inhibitors of the interaction of nucleotide-binding oligomerization domain containing 2 (NOD2) and the receptor-interacting serine-threonine kinase 2 (RIPK2).; assay type: functional; details: Homo sapiens
[8] = Luminescence Cell-Based Dose Retest to Confirm Inhibitors of Cancer Stem Cells. [Related pubchem assays (depositor defined):AID2717, AID2721]; assay type: functional; details: Homo sapiens
[9] = target: T6, Sentrin-specific protease 8 (Homo sapiens, UniProt Q96LD8); assay type: functional
T6 sequence (Q96LD8 whole entry): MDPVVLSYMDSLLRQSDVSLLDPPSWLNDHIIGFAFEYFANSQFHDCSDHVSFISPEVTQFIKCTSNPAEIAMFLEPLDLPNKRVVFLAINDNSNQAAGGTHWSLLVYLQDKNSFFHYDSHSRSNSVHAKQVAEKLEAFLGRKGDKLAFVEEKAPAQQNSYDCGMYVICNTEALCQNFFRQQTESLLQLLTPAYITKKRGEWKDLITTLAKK

[10] = target: T6, Sentrin-specific protease 8; assay type: functional; remark: listed apart in the source
[11] = target: T7, Replicative DNA helicase DnaB (Mycobacterium tuberculosis, UniProt P9WMR3); assay: DnaB intein splicing inhibitors, dose response, biochemical, cell-free fluorescence (AID 449749); assay type: functional
T7 sequence (P9WMR3 whole entry): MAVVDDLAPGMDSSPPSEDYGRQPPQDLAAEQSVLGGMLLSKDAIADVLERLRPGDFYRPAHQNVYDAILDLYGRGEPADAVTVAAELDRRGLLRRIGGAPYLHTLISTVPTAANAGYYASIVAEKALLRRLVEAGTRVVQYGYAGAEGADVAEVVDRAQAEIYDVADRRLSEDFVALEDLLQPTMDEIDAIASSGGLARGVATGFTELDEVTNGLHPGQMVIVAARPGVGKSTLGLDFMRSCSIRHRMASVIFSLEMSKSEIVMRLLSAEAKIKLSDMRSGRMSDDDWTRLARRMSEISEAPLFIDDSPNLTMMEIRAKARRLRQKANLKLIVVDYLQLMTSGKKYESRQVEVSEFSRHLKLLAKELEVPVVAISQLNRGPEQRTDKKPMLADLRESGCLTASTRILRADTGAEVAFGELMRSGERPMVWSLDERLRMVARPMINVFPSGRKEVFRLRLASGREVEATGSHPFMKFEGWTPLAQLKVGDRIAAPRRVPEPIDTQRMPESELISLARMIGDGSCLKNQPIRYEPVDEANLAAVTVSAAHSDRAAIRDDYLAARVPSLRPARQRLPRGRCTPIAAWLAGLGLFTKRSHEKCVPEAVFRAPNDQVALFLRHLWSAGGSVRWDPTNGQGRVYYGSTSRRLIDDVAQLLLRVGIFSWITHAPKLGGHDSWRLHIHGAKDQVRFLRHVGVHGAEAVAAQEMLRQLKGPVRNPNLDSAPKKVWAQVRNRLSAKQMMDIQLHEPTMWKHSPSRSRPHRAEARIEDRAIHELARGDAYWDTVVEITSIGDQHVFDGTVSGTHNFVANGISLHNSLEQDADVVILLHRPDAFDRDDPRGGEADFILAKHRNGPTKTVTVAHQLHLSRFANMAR

Protein RecA = target: T8, Protein RecA (Mycobacterium tuberculosis, UniProt P9WHJ3); assay: Fluorescence Cell-Free Homogeneous Dose Retest to Identify Inhibitors of RecA-Intein Splicing Activity. [Related pubchem assays (depositor defined):AID2097, AID2223, AID489010, AID492950]; assay type: functional
T8 sequence (P9WHJ3 whole entry): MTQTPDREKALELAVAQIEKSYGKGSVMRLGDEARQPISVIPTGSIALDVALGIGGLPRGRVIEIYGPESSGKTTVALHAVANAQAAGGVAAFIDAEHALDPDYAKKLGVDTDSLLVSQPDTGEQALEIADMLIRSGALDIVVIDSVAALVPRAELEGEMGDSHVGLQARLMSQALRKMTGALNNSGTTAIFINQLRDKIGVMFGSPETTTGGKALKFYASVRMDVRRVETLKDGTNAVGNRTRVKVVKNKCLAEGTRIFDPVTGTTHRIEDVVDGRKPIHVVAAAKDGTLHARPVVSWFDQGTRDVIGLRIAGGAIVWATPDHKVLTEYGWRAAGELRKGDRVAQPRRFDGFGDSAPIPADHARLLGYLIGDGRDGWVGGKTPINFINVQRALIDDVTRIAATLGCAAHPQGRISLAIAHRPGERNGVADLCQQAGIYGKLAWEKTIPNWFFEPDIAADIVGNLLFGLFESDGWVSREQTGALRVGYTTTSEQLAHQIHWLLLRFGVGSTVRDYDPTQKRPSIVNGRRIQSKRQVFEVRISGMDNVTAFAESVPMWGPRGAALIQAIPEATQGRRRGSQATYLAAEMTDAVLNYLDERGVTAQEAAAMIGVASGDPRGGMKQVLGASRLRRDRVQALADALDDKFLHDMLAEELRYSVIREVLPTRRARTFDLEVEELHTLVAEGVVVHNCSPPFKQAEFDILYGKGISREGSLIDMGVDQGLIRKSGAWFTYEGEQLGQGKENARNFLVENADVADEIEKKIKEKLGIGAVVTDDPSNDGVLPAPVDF

Genome polyprotein = Genome polyprotein (dengue virus type 2, UniProt P29990); assay: flavivirus cap methylation enzyme inhibition – biochemical, confirmation dose response, primary screen (AID 588689); assay type: functional
Cytochrome P450 1A2 = target: T9, Cytochrome P450 1A2 (Homo sapiens, UniProt P05177);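 note: PubChem cytochrome P450 panel assay, CYP1A2 panel member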
T9 sequence (P05177 whole entry): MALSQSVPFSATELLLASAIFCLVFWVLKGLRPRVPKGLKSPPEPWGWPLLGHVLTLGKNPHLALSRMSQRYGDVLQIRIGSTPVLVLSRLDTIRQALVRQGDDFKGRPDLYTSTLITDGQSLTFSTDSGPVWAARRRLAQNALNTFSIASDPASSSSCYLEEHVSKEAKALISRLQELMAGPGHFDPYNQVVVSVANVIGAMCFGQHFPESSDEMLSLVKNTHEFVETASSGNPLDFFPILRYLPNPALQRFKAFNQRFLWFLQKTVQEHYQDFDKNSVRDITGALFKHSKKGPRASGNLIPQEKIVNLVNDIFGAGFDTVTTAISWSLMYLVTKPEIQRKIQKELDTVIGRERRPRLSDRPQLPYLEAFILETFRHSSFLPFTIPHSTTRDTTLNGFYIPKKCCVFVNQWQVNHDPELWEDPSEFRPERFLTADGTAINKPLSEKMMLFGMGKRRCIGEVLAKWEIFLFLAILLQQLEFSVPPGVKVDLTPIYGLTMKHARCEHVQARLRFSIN

Cytochrome P450 2D6 = Cytochrome P450 2D6 (Homo sapiens, UniProt P10635);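 note: CYP2D6 member of a cytochrome P450 panel assay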
Cytochrome P450 2D6, sequence (P10635 whole entry): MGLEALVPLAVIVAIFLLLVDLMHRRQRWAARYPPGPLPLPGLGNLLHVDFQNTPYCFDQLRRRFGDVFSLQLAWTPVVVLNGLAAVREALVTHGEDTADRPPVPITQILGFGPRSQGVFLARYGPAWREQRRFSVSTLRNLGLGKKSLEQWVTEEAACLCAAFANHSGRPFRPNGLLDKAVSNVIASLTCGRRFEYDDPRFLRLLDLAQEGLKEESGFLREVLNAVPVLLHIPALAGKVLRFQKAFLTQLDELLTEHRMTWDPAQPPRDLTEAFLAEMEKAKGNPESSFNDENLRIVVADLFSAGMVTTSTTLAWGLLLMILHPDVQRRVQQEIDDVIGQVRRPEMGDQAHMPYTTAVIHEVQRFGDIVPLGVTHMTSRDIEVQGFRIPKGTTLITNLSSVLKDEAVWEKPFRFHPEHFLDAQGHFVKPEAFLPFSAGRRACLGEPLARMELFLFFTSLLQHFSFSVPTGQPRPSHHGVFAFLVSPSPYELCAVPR

Genome polyprotein, sequence (P29990 2492-3391 limits assumed): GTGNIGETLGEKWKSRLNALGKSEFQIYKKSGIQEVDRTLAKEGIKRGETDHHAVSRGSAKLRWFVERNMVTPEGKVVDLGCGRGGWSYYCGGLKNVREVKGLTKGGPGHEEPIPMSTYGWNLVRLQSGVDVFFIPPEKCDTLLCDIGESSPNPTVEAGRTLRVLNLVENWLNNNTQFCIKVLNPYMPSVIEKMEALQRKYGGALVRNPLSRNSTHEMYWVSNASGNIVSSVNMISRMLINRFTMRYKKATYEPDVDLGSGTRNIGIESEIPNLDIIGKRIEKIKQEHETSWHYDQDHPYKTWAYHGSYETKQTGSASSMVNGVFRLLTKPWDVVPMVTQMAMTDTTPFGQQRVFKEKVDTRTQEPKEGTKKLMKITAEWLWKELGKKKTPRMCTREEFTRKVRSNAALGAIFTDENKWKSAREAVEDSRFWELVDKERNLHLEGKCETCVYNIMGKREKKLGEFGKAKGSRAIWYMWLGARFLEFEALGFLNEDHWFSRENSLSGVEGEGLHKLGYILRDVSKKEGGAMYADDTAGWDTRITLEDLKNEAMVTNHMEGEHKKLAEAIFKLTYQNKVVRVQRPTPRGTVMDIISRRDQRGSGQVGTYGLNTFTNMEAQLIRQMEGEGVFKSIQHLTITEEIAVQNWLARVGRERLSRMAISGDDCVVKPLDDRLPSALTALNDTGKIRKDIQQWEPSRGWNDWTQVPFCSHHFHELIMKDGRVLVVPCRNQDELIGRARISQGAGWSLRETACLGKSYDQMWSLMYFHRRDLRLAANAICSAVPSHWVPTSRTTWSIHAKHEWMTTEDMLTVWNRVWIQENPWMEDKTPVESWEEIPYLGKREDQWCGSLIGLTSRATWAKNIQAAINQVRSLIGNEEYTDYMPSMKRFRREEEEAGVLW

For COc1ccccc1-n1c(/C=C/c2ccc(O)cc2)nc2ccccc2c1=O, the CC50 [1] was 100 µM (active) and the IC50 [2] was 106 µM (active).

For CC1=CC2=NC(=O)/C(=C\c3cc(C)n(-c4ccccc4F)c3C)C(=N)N2O1, the AC50 [3] was 0.247 µM (active).

For O=c1c2cc(-c3ccccc3)sc2nc2n1N=C(c1cccs1)CS2, the IC50 [4] was 13.7 µM (active) and the IC50 [5] was 6.3 µM (active).

For O=[N+]([O-])c1cc(S(=O)(=O)N2CCCCCC2)ccc1F, the AC50 [6] was 9.53 µM (active), the IC50 [7] was 1.53 µM (active) and the AC50 [8] was 3.09 µM (active).

In the case of Oc1ccc(-c2[nH]ncc2-c2ccc(Cl)cc2)c(O)c1, the CC50 [1] is reported as 100 µM (active) and the IC50 [2] is reported as 90.8 µM (active).

With COC/C=C/C1=CC2=CC(=O)C(C)(OC(=O)c3cnc4ccccc4n3)C(=O)C2=CN1Cc1ccccc1 (configuration not stated) the IC50 [9] was 18.9 µM (active) and the IC50 [10] was 12.7 µM (active).

In the case of Cc1nc2nc(SCC(=O)N3CCC4(CC3)OCCO4)nn2c(C)c1Cc1ccccc1, the AC50 [3] is reported as 2.82 µM (active).

In the case of COc1ccc(CNc2nc(-c3ccccc3)nc3ccccc23)cc1OC, the IC50 [4] is reported as 9.94 µM (active).

In the case of Cc1nn(-c2ccc(F)cc2)c(O)c1C(c1cccc(O)c1)c1c(C)[nH]n(-c2ccc(F)cc2)c1=O (configuration not stated), the IC50 [9] is reported as 14.6 µM (active), the AC50 [11] is reported as 1.06 µM (active) and the EC50 (Protein RecA) is reported as 0.856 µM (active). The IC50 (Genome polyprotein) was 55.5 µM (active), the AC50 (Cytochrome P450 1A2) was 25.1 µM (inconclusive) and the IC50 [10] was 12.2 µM (active). The AC50 (Cytochrome P450 2D6) was 28.2 µM (inconclusive).

For CC(=O)OCC(=O)[C@@]1(OC(C)=O)[C@@H](C)C[C@H]2[C@@H]3C[C@H](F)C4=CC(=O)C=C[C@]4(C)[C@@]3(F)[C@@H](O)C[C@@]21C [DIFLORASONE DIACETATE], the AC50 [3] was 9.06 µM (active).

Reference: ChEMBL document CHEMBL1201862, “PubChem BioAssay data set” (2004)
